Measurements taken from patent US20120277211A1, “METHODS AND COMPOSITIONS FOR THE TREATMENT OF PSYCHOTIC DISORDERS THROUGH THE IDENTIFICATION OF THE SULT4A1-1 HAPLOTYPE” (priority 2009, published 2012).
Marks after values point to notes of the source that are not given here.

How the values were obtained:
[1] = system: Caucasian schizophrenia patients; assay: CATIE: time to discontinuation for all causes by SULT4A1-1 status; type: in vivo, human
Text: The primary endpoint for the CATIE study was time to discontinuation for all causes (Lieberman et al., 2005). Thus the inventors evaluated the effect of SULT41-1 status on this important parameter.

schizophrenia patients = assay: CATIE: months of successful treatment measured by the CGI scale (TMSUCC1); type: in vivo, human
Text: The CATIE clinical data set included Clinical Global Impression (CGI) Scale, an observer-provided assessment of the psychiatric health of the patient (Stroup et al., 2003; Guy 1976). Patients are rated with the CGI Scale from 1 to 7, with higher scores indicating greater severity of illness. The CATIE study provided a response variable that measured the time (in months) of successful treatment as measured by the CGI scale (“TMSUCC1” in the CATIE data).

[2] = system: unsegmented patient populations; conditions: cited from earlier work
[3] = system: Caucasian schizophrenia patients; assay: CATIE: hospitalization due to exacerbation of psychosis by SULT4A1-1 status; type: in vivo, human
Text: To assess if SULT4A1-1 status impacts the risk of hospitalization in Caucasians, the inventors assigned SULT4A1-1 status to each CATIE subject and evaluated hospitalization events due to exacerbation of psychosis. For this analysis, the inventors assigned a dichotomous value (positive or negative) for hospitalization status to subjects in each phase of the trial based on only the first hospitalization event for a given patient in that phase. Patients participating in Phases 1, 2, and/or 3 were included in the totals for the appropriate drug.
A Kaplan-Meier survival analysis was performed to determine whether there was a difference between the survival (hospitalization) rates for the SULT4A1-1 negative and SULT4A1-1 positive patient populations treated with each of the atypical antipsychotics. Survival plots model the fraction of the population that survived (i.e., no hospitalization event) as a function of time.

[4] = system: African American schizophrenia patients; assay: CATIE: change in total PANSS (LOCF) by SULT4A1-1 haplotype status, African Americans; type: in vivo, human; conditions: for Number of individuals with change in total PANSS ≦−20% (responders) / Number of individuals with change in total PANSS ≧−20% (non-responders): LOCF
Experimental: The design of the CATIE study has been described in detail by others (Lieberman et al., 2005; Stroup et al., 2003). […] A total of 738 subjects consented to provide DNA for genetic study. […] Retrospective genetic analyses, judged to be exempt from human studies requirements by an IRB, were conducted in the current study. All tested patients were studied using well established clinical endpoints comparing baseline, intermediate, and last observation carried forward (LOCF) for the PANSS scores using CATIE data. […] To remove time on drug as a variable for the CATIE trial, analysis was limited to only those patients who were randomized to a different drug following the initial washout period (drug switchers).

[5] = system: Caucasian schizophrenia patients; assay: CATIE Phase I: change in total PANSS (LOCF) by SULT4A1-1 haplotype status, Caucasians; type: in vivo, human; conditions: for Number of individuals with change in total PANSS ≦−20% (responders) / Number of individuals with change in total PANSS ≧−20% (non-responders) / Responders: CATIE Caucasians, LOCF; for Responders: change in PANSS ≦−20%; for Effect size: olanzapine SULT4A1-1+ vs comparator group / Mean difference (95% CI) in delta PANSS: olanzapine SULT4A1-1+ minus comparator group: comparator = labelled drug in SULT4A1-1+ patients
Text: There are several different metrics for quantifying response in clinical trials of antipsychotic medications. The most commonly used psychometric instrument is the Positive and Negative Syndrome Scale (PANSS), a 30-item semi-quantitative instrument scored by clinical professionals (Kay et al., 1987). The greater the decrease in PANSS score, the better the clinical response. The most direct measure of clinical response is absolute change in PANSS score. In addition to absolute change, the improvement is often reported as a percentage change from baseline PANSS score.
A decrease of at least 20% in total PANSS is one commonly used threshold for response (Leucht et al., 2009).
The design of the CATIE study has been described in detail by others (Lieberman et al., 2005; Stroup et al., 2003). […] A total of 738 subjects consented to provide DNA for genetic study. […] Retrospective genetic analyses, judged to be exempt from human studies requirements by an IRB, were conducted in the current study.
All tested patients were studied using well established clinical endpoints comparing baseline, intermediate, and last observation carried forward (LOCF) for the PANSS scores using CATIE data. LOCF analysis is a commonly used clinical endpoint for clinical trials for neuropsychiatric drugs, with changes in PANSS scores of between negative 20% and negative 30% used as typical endpoints to indicate clinically significant response (Leucht et al., 2009). To remove time on drug as a variable for the CATIE trial, analysis was limited to only those patients who were randomized to a different drug following the initial washout period (drug switchers).
The CATIE clinical data set included baseline PANSS scores based on clinical assessments prior to initiation of the assigned therapy, but following the washout period for any patients previously on antipsychotic medication. Follow up PANSS data for the CATIE trial were collected at each visit as described in detail by others (Stroup et al., 2003).
Since follow-up on subjects was not done at uniform time intervals, analysis was done using the last observation for each patient in treatment Phase I of the trial as the measure of response (last observation carried forward, LOCF). Main effect and interaction terms between the SULT4A1-1 haplotype and drug therapy were included in the linear model. A pre-determined set of contrasts for differences in percent change PANSS by haplotype within each drug therapy (three comparisons) and by drug therapy within each haplotype (six comparisons) were evaluated, with adjustment for multiple-comparisons using the step-up false-discovery rate (FDR) controlling procedure (Benjamini and Hochberg, 1995). A sub-analysis omitting those patients who were randomized to the same antipsychotic drug therapy was also conducted.

[6] = Unsegmented, Phases 1, 2 and/or 3, first event
[7] = SULT4A1-1 positive, randomized to a different drug

| Compound | Time to discontinuation, mean ([1]; SULT4A1-1 negative) | Time to discontinuation, mean ([1]; SULT4A1-1 positive) | Length of successful treatment (CGI Months), Mean (schizophrenia patients; SULT4A1-1 negative) | Length of successful treatment (CGI Months), Mean (schizophrenia patients; SULT4A1-1 positive) | Length of successful treatment (CGI Months), Mean (schizophrenia patients; Unsegmented) | HOSP, number of patients hospitalized ([3]; SULT4A1-1 negative) | HOSP, rate of hospitalization ([3]; SULT4A1-1 negative) | HOSP, number of patients hospitalized ([3]; SULT4A1-1 positive) | HOSP, rate of hospitalization ([3]; SULT4A1-1 positive) | HOSP, rate of hospitalization ([3]; Unsegmented) | HOSP, number of patients hospitalized [3, 6] | Responders ([4]; SULT4A1-1 negative) | Number of individuals with change in total PANSS ≦−20% (responders) ([4]; SULT4A1-1 negative) | Number of individuals with change in total PANSS ≧−20% (non-responders) ([4]; SULT4A1-1 negative) | Responders ([4]; SULT4A1-1 positive) | Number of individuals with change in total PANSS ≦−20% (responders) ([4]; SULT4A1-1 positive) | Number of individuals with change in total PANSS ≧−20% (non-responders) ([4]; SULT4A1-1 positive) | DELTA PANSS % (mean change in PANSS score from baseline to LOCF) ([5]; SULT4A1-1 negative) | Number of individuals with change in total PANSS ≦−20% (responders) ([5]; SULT4A1-1 negative) | Number of individuals with change in total PANSS ≧−20% (non-responders) ([5]; SULT4A1-1 negative) | further results |
| --- | --- | --- | --- | --- | --- | --- | --- | --- | --- | --- | --- | --- | --- | --- | --- | --- | --- | --- | --- | --- | --- |
| O=C1Cc2cc(CCN3CCN(c4nsc5ccccc45)CC3)c(Cl)cc2N1 [Ziprasidone] | 8.2*** Months | 11.7 Months | 4.51 Months | 8.36^d Months | 5.36 Months | 11 | 13.4% | 2 | 7.1% | 11.8% | 13 | 15.4% | 4 | 22 | 0% | 0 | 3 | −4*** % | 6 | 32 | Effect Size vs. FGA ([2]; first generation antipsychotics, Davis et al. (2003)): −0.04; Effect Size vs. Placebo ([2]; meta-analysis, Leucht et al. (2009), negative = greater reduction in PANSS): −0.48; Mean difference in total PANSS score between olanzapine and labelled drug, Meta-analysis ([2]; unsegmented populations, Leucht et al. (2009)): −8.3; Kaplan-Meier: difference between survival (no hospitalization) rates of SULT4A1-1 negative and positive patients ([3]; per drug): not statistically significant; Mean difference in total PANSS score between olanzapine and labelled drug, CATIE SULT4A1-1+ ([5]; SULT4A1-1+): −17.9; Responders ([5]; SULT4A1-1 negative): 15.7%**; DELTA PANSS % (mean change in PANSS score from baseline to LOCF) ([5]; SULT4A1-1 positive): −8* %; Number of individuals with change in total PANSS ≧−20% (non-responders) ([5]; SULT4A1-1 positive): 7; Number of individuals with change in total PANSS ≦−20% (responders) [5, 7]: 3; Responders ([5]; SULT4A1-1 positive): 30.0%; Mean difference in total PANSS score between olanzapine and labelled drug, CATIE SULT4A1-1− ([5]; SULT4A1-1−): −2.1; Mean difference in total PANSS score between olanzapine and labelled drug, CATIE unsegmented ([5]; Unsegmented): −4.9; Effect size: olanzapine SULT4A1-1+ vs comparator group [5]: 0.77; Mean difference (95% CI) in delta PANSS: olanzapine SULT4A1-1+ minus comparator group [5]: −16.1 (−32.7 to 0.5); Effect Size attributable to SULT4A1-1 status in CATIE ([5]; olanzapine-treated SULT4A1-1 positive versus labelled drug-treated SULT4A1-1 positive): −0.77^b |
| OCCN1CCN(CCCN2c3ccccc3Sc3ccc(Cl)cc32)CC1 [Perphenazine] | 10.6* Months | 7.6** Months | 7.03 Months | 5.29 Months | 6.72 Months | 9 | 13.4% | 1 | 7.1% | 12.3% | 10 | 27.0% | 10 | 27 | 0% | 0 | 2 | −3*** % | 16 | 47 | Responders ([5]; SULT4A1-1 negative): 25.4%**; DELTA PANSS % (mean change in PANSS score from baseline to LOCF) ([5]; SULT4A1-1 positive): −10* %; Number of individuals with change in total PANSS ≧−20% (non-responders) ([5]; SULT4A1-1 positive): 9; Number of individuals with change in total PANSS ≦−20% (responders) [5, 7]: 5; Responders ([5]; SULT4A1-1 positive): 35.7%; Effect size: olanzapine SULT4A1-1+ vs comparator group [5]: 0.68; Mean difference (95% CI) in delta PANSS: olanzapine SULT4A1-1+ minus comparator group [5]: −14.2 (−29.8 to 1.4) |
